Measured values reported in US12667584B2, “Adenosine analog and its use in regulating the circadian clock” (NATIONAL INSTITUTE OF BIOLOGICAL SCIENCES, BEIJING, priority 2017, dated 2026).

How the values were obtained:
kidney clocks = test: Phase shift of kidney clock; assay type: cell-based
E-box genes = test: Nascent pre-mRNA sequencing (nascent-seq) of U2OS cells; assay type: cell-based, human
Description: Manipulating DRB's well characterized target CDK9 protein with AID degron mimics the phase shift curve of DRB in Per2-dLuc cells. […] Using nascent seq experiment, we found DRB treatment repress majority genes expression, but exclusively activates E-box containing gene both in vitro (FIG. 4).
(red color). […] Thus, perhaps the partial inhibition of CDK9 stimulates, rather than represses, the transcription of E-box genes. Right napel is UCSC genome browser views of E-box containing (NR1D1 and DBP) or non-E-box containing (BMAL1 and CRY1) clock genes

PER2 locus = test: ChIP-qPCR analysis for the PER2 locus; assay type: cell-based
Description: Human and mouse circadian oscillators are driven by interlocked transcriptional and translational feedback loop. Bmal1 and Clock are transcriptional factors and function as positive arm to active negative arm genes transcription, including Per and Cry. Per and Cry are transcriptional repressor and feedback repress Bmal1/Clock's transcription activity thereby inhibit its own transcription. […] We also confirmed this by ChIP-qPCR experiments. Cordycepin treatment 30 min immediately release Cry1/2 and Ruvbl2 binding at Per2 gene promoter.

SCN culture slice = test: Ex vivo SCN slice culture from Per2::LUC mice, lumicycle; assay type: cell-based, mouse
Description: Tissue culture, drug treatment and Real-Time Monitoring of Circadian Oscillations: 8 week-old male mPer2 Luciferase knockin mice were Sacrificed cervical dislocation. Then wipe the skin and neck with cotton containing 70% ethanol in a sterile hood. For SCN slice culture, firstly remove the eye balls from the head with scissors, decapitate and cut the skin. Then open the skull, remove all bone until the olfactory bulbs can be seen, cut the optic nerve between the olfactory bulbs and the hemispheres, and finally harvest the whole brain into ice cold HBSS. Trim the brain in HBSS by removing the cerebellum and olfactory bulbs. Attach the brain to a sample tray by glue with the rostral tip upwards and ventral surface closest to the cutting blade, then immediately fill the tray with ice cold HBSS and set the tray to the vibratome. Set the vibratome frequency at the maximum and the speed to the medium. To reach the SCN area quickly, the start cutting off thicker sections should be 500-800 μm. Reduce the sections thicker to 100 μm when the optic chiasm becomes wider. When the two SCN nuclei start to appear, collect the slice with transfer pipettes and check slices under dissecting microscope. […] Data was extract and analyzed with LumiCycle Analysis software. […]

CDK9 = biological target: T1, CDK9 (Homo sapiens, UniProt P50750); test: Biotinylated compounds pull-down in U2OS cell lysate, CDK9; assay type: binding
T1 construct: Every 10^8 unsynchronized U2OS cells were collected, homogenized into 2 ml lysis buffer; endogenous in cells; host or cells: U2OS
T1 sequence (P50750 whole entry): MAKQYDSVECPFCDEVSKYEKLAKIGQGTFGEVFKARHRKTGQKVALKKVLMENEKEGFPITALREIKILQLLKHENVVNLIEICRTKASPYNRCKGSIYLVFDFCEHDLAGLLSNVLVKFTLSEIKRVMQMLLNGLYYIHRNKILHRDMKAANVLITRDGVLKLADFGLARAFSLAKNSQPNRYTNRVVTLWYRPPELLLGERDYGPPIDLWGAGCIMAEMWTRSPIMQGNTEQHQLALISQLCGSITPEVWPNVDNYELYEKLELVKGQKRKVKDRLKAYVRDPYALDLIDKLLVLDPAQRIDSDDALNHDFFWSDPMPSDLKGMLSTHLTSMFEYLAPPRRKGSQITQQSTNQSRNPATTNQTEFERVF
T1 sequence (O60563 whole entry partner): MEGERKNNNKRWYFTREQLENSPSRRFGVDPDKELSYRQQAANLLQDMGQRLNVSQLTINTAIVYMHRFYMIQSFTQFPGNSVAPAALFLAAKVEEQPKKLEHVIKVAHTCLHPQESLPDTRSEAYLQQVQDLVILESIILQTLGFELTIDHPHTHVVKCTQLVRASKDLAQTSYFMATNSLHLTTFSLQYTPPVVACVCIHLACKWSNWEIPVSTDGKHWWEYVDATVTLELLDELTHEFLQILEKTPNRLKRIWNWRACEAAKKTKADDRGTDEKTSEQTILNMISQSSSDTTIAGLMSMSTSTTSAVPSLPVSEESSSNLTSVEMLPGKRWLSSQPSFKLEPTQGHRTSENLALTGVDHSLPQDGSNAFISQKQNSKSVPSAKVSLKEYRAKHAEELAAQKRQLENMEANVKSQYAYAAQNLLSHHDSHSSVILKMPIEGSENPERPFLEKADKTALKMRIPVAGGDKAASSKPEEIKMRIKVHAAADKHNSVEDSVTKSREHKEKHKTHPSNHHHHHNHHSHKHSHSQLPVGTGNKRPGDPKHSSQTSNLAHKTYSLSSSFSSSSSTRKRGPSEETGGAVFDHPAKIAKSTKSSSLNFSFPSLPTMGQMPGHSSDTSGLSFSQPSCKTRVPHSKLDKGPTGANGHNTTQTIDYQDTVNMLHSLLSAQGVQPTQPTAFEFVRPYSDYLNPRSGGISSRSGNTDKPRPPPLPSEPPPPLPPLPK
Description: (§1) Biotinylated Compounds Pull-down, SPR analysis and Immunoprecipitation: The interaction between biotinylated compounds and their target proteins were proceeded as follow. Every 10^8 unsynchronized U2OS cells were collected, homogenized into 2 ml lysis buffer (25 mM MOPS pH7.2, 15 mM EGTA, 15 mM MgCl2, 1 mM DTT, 60 mM β-glycerophosphate, 1 mM Na3VO4, 1 mM NaF, 1 mM phenyl phosphate, Complete Protease Inhibitor Cocktail), and sonicated 6 times for 30 s at 4° C. with a Diagenode bioruptor. After sonication, NP-40 (final 0.5%) was added, incubated 15 min on ice, centrifuged at full speed for 20 min at 4° C. The resultant supernatant was firstly incubated with Pentostatin (final concentration at 5 μg/ml) for 2 h at 4° C. with rotation, and then split into 4 groups. 200 pmol cordycepin, 200 pmol DRB, and DMSO (2 groups, final 0.1%) was added respectively and further incubated for 1 h. […] The eluted protein was analyzed with western blot. The binding affinity of cordycepin against the RUVBL2 protein was measured via SPR technology using a Biacore T200 instrument (GE Healthcare) at room temperature. […] The binding kinetics and binding affinity of cordycepin against the RUVBL2 protein were determined with BIA evaluation software (GE healthcare). […] Immunoprecipitated protein complex was then washed 3 times with IP lysis buffer, boiled and analyzed with western blot. […]

Ruvbl2 = Ruvbl2 (Homo sapiens, UniProt Q9Y230); test: Biotinylated compounds pull-down in U2OS cell lysate, RUVBL2; assay type: binding; design: Every 10^8 unsynchronized U2OS cells were collected, homogenized into 2 ml lysis buffer; endogenous in cells; host or cells: U2OS; settings: competed by biotin free compound
Ruvbl2, sequence (Q9Y230 whole entry): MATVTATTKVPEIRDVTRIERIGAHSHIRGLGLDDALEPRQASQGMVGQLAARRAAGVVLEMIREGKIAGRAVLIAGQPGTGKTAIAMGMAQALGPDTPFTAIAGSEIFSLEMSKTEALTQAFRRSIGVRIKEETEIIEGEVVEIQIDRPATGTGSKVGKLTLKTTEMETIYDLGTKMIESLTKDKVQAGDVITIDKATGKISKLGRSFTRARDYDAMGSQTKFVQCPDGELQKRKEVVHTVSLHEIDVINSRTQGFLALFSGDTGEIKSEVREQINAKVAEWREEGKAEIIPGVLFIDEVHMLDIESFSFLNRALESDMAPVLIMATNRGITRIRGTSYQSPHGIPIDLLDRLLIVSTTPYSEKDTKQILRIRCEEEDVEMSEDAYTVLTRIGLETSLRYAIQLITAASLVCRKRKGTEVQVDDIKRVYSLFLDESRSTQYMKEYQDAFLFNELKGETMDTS
Description: as §1

| pull-down of CDK9 (CDK9) | pull-down of Ruvbl2 (Ruvbl2) | Compound | clock phase of kidney (kidney clocks) | nascent transcription of E-box genes (E-box genes; 1, 2, 4 h post administration) | newly synthesized mRNA of the majority of genes (E-box genes; within the first hour) | binding of BMAL1 at PER2 locus (PER2 locus) | binding of CRY2/RUVBL2 at PER2 locus (PER2 locus) | clock phase of SCN slice (SCN culture slice) |
| --- | --- | --- | --- | --- | --- | --- | --- | --- |
| – | – | OC[C@H]1O[C@@H](n2cnc3cc(Cl)c(Cl)cc32)[C@H](O)[C@@H]1O [DRB, 5,6-dichloro-1-β-D-ribobenzimidazole] | shift the phase | all up-regulated | reduced | remained unchanged | released | shift the phase |
| successfully isolated | can pull-down | O=C1N[C@H]2[C@H](CS[C@H]2CCCCC(=O)OC[C@H]2O[C@@H](n3cnc4cc(Cl)c(Cl)cc43)[C@H](O)[C@@H]2O)N1 [biotin-DRB, 5,6-dichloro-1-(5′-O-biotinyl-β-D-ribofuranosyl)-benzimidazole] | – | – | – | – | – | – |
